Experimental data as given in US20090156582A1, “Pyrazole Compound” (priority 2005, published 2009).

Target: T1, recombinant GSK3β enzyme (human GSK3β) (Homo sapiens, UniProt P49841)
T1 construct: FLAG (N); made in house; host or cells: Sf-21 insect cells, recombinant baculovirus (pFASTBAC1 / BAC-TO-BAC)
Assay: Measurement of GSK3β inhibitory activity
Format: biochemical
Details: glycogen synthase peptide substrate, Kinase Glo luminescence, read-out: IC50 (concentration of test compound needed for 50% inhibition of luminescent intensity), GSK3β inhibitory activity
Description: Human GSK3β gene was cloned by a PCR method using a primer set:
prepared using human brain cDNA (Clontech; trade name: QUICK-Clone cDNA) as a template and in reference to the base sequence of GSK3β gene registered in GenBank under Accession Number NM_002093.
PCR was done according to the protocol attached to KOD plus DNA polymerase (Toyo Boseki Kabushiki Kaisha). The obtained PCR product was electrophoresed on agarose gel (1%), and 1.2 kb of DNA fragment including GSK3β gene was collected from the gel and then digested with restriction enzymes EcoR I and Sal I. The restriction enzyme-treated DNA was electrophoresed on agarose gel (1%). The obtained DNA fragment was collected, and ligated to the plasmid pFASTBAC1 (Invitrogen), which had been digested with restriction enzyme EcoR I and Sal I, to produce expression plasmid pFB-GSK3B. The base sequence of insertion fragment was confirmed to find that it corresponded to the objective sequence. In addition, virus stock BAC-GSK3B of recombinant Baculovirus was prepared using BAC-TO-BAC Baculovirus Expression System (Invitrogen).
Sf-21 cells (Invitrogen) were seeded on Sf-900 II SFM medium (Invitrogen)(150 ml) containing 10% fetal calf serum at 1×10^6 cells/ml, and cultured at 27° C. for 24 hr. The virus stock […] obtained above of recombinant Baculovirus was added by 150 μl to the obtained culture medium, and the cells were cultured for another 60 hr. The culture medium was centrifuged (3000 rpm, 10 min) to separate the cells, and the cells were washed once with PBS. The cells were suspended in 10 ml of cell lysis buffer (25 mM HEPES (pH 7.5), 1% Triton X, 130 mM sodium chloride, 1 mM EDTA, 1 mM Dithiothreitol, 25 mM β-glycerophosphate, Protease inhibitor Complete (Boehringer), 1 mM Sodium orthovanadate), treated 4 times using a homogenizer (POLYTRON) at 20000 rpm for 30 sec to disrupt the cells. The disrupted solution of cells was centrifuged (40000 rpm, 45 min.), and GSK3β was purified from the obtained supernatant using Anti-FLAG M2 Affinity Gel (Sigma Ltd.).
10 μl of ATP solution (2.5 μM ATP) was added to the obtained mixture, and the mixture was reacted at room temperature for 30 min. Kinase Glo Reagent (Promega) (50 μl) was added to the reaction solution to stop the reaction. After reaction at room temperature for 10 min, the luminescent intensity was measured using ARVO multilabel counter (PerkinElmer Life Sciences). The concentrations of the test compounds needed for 50% inhibition of luminescent intensity (IC50 value) were calculated by PRISM 3.0 (GraphPad Software).

T1 sequence (P49841 whole entry): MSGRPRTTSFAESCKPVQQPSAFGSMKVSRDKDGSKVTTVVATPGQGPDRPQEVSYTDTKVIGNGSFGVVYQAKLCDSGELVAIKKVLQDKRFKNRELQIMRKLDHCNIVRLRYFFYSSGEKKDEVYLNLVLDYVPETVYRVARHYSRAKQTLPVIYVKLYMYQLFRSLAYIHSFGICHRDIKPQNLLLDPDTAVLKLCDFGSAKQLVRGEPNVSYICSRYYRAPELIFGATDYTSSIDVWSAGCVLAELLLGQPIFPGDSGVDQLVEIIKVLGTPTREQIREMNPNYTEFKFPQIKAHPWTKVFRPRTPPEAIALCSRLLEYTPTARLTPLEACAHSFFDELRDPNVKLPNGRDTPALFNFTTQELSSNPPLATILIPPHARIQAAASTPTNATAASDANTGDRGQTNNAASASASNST

SMILES	IC50
CC(=O)Nc1cccc(C(=O)Nc2c[nH]nc2C(=O)NCCCOC(C)C)c1 [Example 385, 4-((3-(acetylamino)benzoyl)amino)-N-(3-isopropoxypropyl)-1H-pyrazole-3-carboxamide]	< 100 nM
CC(C)OCCCNC(=O)c1n[nH]cc1NC(=O)c1ccccn1 [Example 353, N-(3-(((3-isopropoxypropyl)amino)carbonyl)-1H-pyrazol-4-yl)pyridine-2-carboxamide]	< 100 nM
O=C(Nc1c[nH]nc1C(=O)NCCOc1ccccc1)c1ccccn1 [Example 355, N-(3-(((2-phenoxyethyl)amino)carbonyl)-1H-pyrazol-4-yl)pyridine-2-carboxamide]	< 100 nM
O=C(COc1ccccc1)Nc1c[nH]nc1C(=O)NCc1ccccc1 [Example 101, N-benzyl-4-[(phenoxyacetyl)amino]-1H-pyrazole-3-carboxamide]	< 100 nM
CC(=O)Nc1cccc(C(=O)Nc2c[nH]nc2C(=O)NCCN(C)C)c1 [Example 373, 4-((3-(acetylamino)benzoyl)amino)-N-(2-(dimethylamino)ethyl)-1H-pyrazole-3-carboxamide]	< 100 nM
O=C(Nc1c[nH]nc1C(=O)NCCc1cccnc1)c1ccccn1 [Example 352, N-(3-(((2-pyridin-3-ylethyl)amino)carbonyl)-1H-pyrazol-4-yl)pyridine-2-carboxamide]	< 100 nM
O=C(CC1CCCC1)Nc1c[nH]nc1C(=O)NCc1ccco1 [Example 143, 4-[(cyclopentylacetyl)amino]-N-(2-furylmethyl)-1H-pyrazole-3-carboxamide]	155 nM
O=C(COc1ccccc1)Nc1c[nH]nc1C(=O)NCCc1ccccc1 [Example 123, 4-[(phenoxyacetyl)amino]-N-(2-phenylethyl)-1H-pyrazole-3-carboxamide]	< 100 nM
O=C(Nc1c[nH]nc1C(=O)NCCC(F)(F)F)c1ccccn1 [Example 393, N-(3-(((3,3,3-trifluoropropyl)amino)carbonyl)-1H-pyrazol-4-yl)pyridine-2-carboxamide]	< 100 nM
Cc1ccc(C(=O)Nc2c[nH]nc2C(=O)NCCC#N)cc1 [Example 418, N-(2-cyanoethyl)-4-(4-methylbenzoylamino)-1H-pyrazole-3-carboxamide]	< 100 nM
N#CCCNC(=O)c1n[nH]cc1NC(=O)c1cccc(C#N)c1 [Example 417, N-(2-cyanoethyl)-4-(3-cyanobenzoylamino)-1H-pyrazole-3-carboxamide]	< 100 nM
CC(=O)Nc1cccc(C(=O)Nc2c[nH]nc2C(=O)NCCC#N)c1 [Example 372, 4-((3-(acetylamino)benzoyl)amino)-N-(2-cyanoethyl)-1H-pyrazole-3-carboxamide]	< 100 nM
O=C(Nc1c[nH]nc1C(=O)NCCc1ccccc1)c1ccccn1 [Example 338, N-(3-(((2-phenylethyl)amino)carbonyl)-1H-pyrazol-4-yl)pyridine-2-carboxamide]	< 100 nM
O=C(CCc1ccccc1)Nc1c[nH]nc1C(=O)NCCc1ccccc1 [Example 128, N-(2-phenylethyl)-4-[(3-phenylpropanoyl)amino]-1H-pyrazole-3-carboxamide]	< 100 nM
CC(=O)Nc1cccc(C(=O)Nc2c[nH]nc2C(=O)NCCOc2ccccc2)c1 [Example 369, 4-((3-(acetylamino)benzoyl)amino)-N-(2-phenoxyethyl)-1H-pyrazole-3-carboxamide]	< 100 nM
CC(=O)Nc1cccc(C(=O)Nc2c[nH]nc2C(=O)NCCOC(C)(C)C)c1 [Example 381, 4-((3-(acetylamino)benzoyl)amino)-N-(2-tert-butoxyethyl)-1H-pyrazole-3-carboxamide]	140 nM
CC(=O)Nc1cccc(C(=O)Nc2c[nH]nc2C(=O)NCC(=O)c2ccccc2)c1 [Example 374, 4-((3-(acetylamino)benzoyl)amino)-N-(2-oxo-2-phenylethyl)-1H-pyrazole-3-carboxamide]	< 100 nM
O=C(CCc1ccccc1)Nc1c[nH]nc1C(=O)NCc1ccccc1 [Example 106, N-benyzl-4-[(3-phenylpropanoyl)amino]-1H-pyrazole-3-carboxamide]	242 nM
O=C(Nc1c[nH]nc1C(=O)NCc1ccccc1)c1ccc(Oc2ccccc2)cc1 [Example 114, N-benzyl-4-[(4-phenoxybenzoyl)amino]-1H-pyrazole-3-carboxamide]	394 nM
CCOCC(=O)Nc1c[nH]nc1C(=O)NCc1ccccc1 [Example 103, N-benzyl-4-[(ethoxyacetyl)amino]-1H-pyrazole-3-carboxamide]	< 100 nM
O=C(Nc1c[nH]nc1C(=O)NCCc1ccccc1)c1ccc(F)cc1F [Example 134, 4-[(2,4-difluorobenzoyl)amino]-N-(2-phenylethyl)-1H-pyrazole-3-carboxamide]	< 100 nM
O=C(Nc1c[nH]nc1C(=O)NCCc1ccccc1)c1ccc(Oc2ccccc2)cc1 [Example 135, 4-[(4-phenoxybenzoyl)amino]-N-(2-phenylethyl)-1H-pyrazole-3-carboxamide]	< 100 nM
O=C(/C=C/c1ccccc1)Nc1c[nH]nc1C(=O)NCc1ccccc1 [Example 105, N-benzyl-4-{[(2E)-3-phenylprop-2-enoyl]amino}-1H-pyrazole-3-carboxamide]	273 nM
CC(=O)Nc1cccc(C(=O)Nc2c[nH]nc2C(=O)NCC#N)c1 [Example 380, 4-((3-(acetylamino)benzoyl)amino)-N-(cyanomethyl)-1H-pyrazole-3-carboxamide]	< 100 nM
CC(=O)Nc1cccc(C(=O)Nc2c[nH]nc2C(=O)NCCS(=O)(=O)c2ccccn2)c1 [Example 384, 4-((3-(acetylamino)benzoyl)amino)-N-(2-(pyridin-2-ylsulfonyl)ethyl)-1H-pyrazole-3-carboxamide]	< 100 nM

The remaining lines, values ahead:

IC50	SMILES
< 100 nM	O=C(Nc1c[nH]nc1C(=O)NC1CCCC1)c1ccc(F)cc1F [compound 073]
< 100 nM	O=C(Nc1c[nH]nc1C(=O)NCC(F)(F)F)c1ccccc1 [Example 422, 4-(benzoylamino)-N-(2,2,2-trifluoroethyl)-1H-pyrazole-3-carboxamide]
< 100 nM	O=C(Nc1c[nH]nc1C(=O)Nc1ccccc1)c1cnccn1 [compound 098]
< 100 nM	O=C(Nc1c[nH]nc1C(=O)NC1CCCC1)c1ccc2[nH]ccc2c1 [compound 077]
194 nM	O=C(Nc1c[nH]nc1C(=O)NCc1ccco1)c1ccc(OC(F)(F)F)cc1 [compound 160]
< 100 nM	CCOCC(=O)Nc1c[nH]nc1C(=O)Nc1ccccc1 [compound 085]
< 100 nM	CC(C)NC(=O)c1n[nH]cc1NC(=O)c1ccc(OC(F)(F)F)cc1 [compound 035]
234 nM	O=C(Cc1ccc(-c2ccccc2)cc1)Nc1c[nH]nc1C(=O)NC1CCCC1 [compound 065]
< 100 nM	CC(=O)Nc1c[nH]nc1C(=O)NC(C)C [compound 017]
< 100 nM	O=C(Nc1c[nH]nc1C(=O)NCc1ccco1)c1ccc(F)cc1F [compound 156]
< 100 nM	CC(=O)Nc1cccc(C(=O)Nc2c[nH]nc2C(=O)NCc2ccco2)c1 [compound 159]
< 100 nM	CC(C)OCCNC(=O)c1n[nH]cc1NC(=O)c1ccccc1 [Example 424, 4-(benzoylamino)-N-(2-isopropoxyethyl)-1H-pyrazole-3-carboxamide]
< 100 nM	CC(C)NC(=O)c1n[nH]cc1NC(=O)c1ccc(Oc2ccccc2)cc1 [compound 032]
< 100 nM	CC1(C)C2CC[C@@]1(CS(=O)(=O)Nc1c[nH]nc1C(=O)NCCc1ccccc1)C(=O)C2 [compound 305]
< 100 nM	CC(C)NC(=O)c1n[nH]cc1NC(=O)C(c1ccccc1)c1ccccc1 [compound 019]
< 100 nM	O=C(COc1ccccc1)Nc1c[nH]nc1C(=O)Nc1ccccc1 [compound 083]
233 nM	CC(C)NC(=O)c1n[nH]cc1NC(=O)Cc1ccc(-c2ccccc2)cc1 [compound 022]
< 100 nM	CC(C)NC(=O)c1n[nH]cc1NC(=O)c1ccccc1 [compound 027]
< 100 nM	O=C(Nc1c[nH]nc1C(=O)NC1CCCC1)c1ccc(C(F)(F)F)cc1 [compound 071]
< 100 nM	COc1ccc(C(=O)Nc2c[nH]nc2C(=O)NC2CCCC2)cc1 [compound 072]
< 100 nM	O=C(Cc1c[nH]c2ccccc12)Nc1c[nH]nc1C(=O)NC1CCCC1 [compound 069]
